Assay results taken from ChEMBL document CHEMBL1136487, “Novel non-vanilloid VR1 antagonist of high analgesic effects and its structural requirement for VR1 antagonistic effects” (Bioorg Med Chem Lett, 2003).

Target: Vanilloid receptor (Rattus norvegicus, UniProt Q9ERZ8+Q9WUD2+O35433)
Assay: Inhibition of [Ca2+] uptake in dorsal root ganglion (DRG) neurons from neonatal Sprague-Dawley rat
Format: functional, tissue-based

For `CC(C)(C)c1ccc(CNC(=S)NCc2ccc(NS(C)(=O)=O)c(F)c2)cc1`, which IC50 is on record?
Its IC50 is 0.037 µM.

`Oc1cc2c(cc1O)CN(C(=S)NCCc1ccc(Cl)cc1)CCC2` [CAPSAZEPINE] was tested. Which IC50 did it give?
Its IC50 is 0.59 µM.

Which IC50 does the source give for `CC(C)(C)c1ccc(C/N=C(\S)NCc2cccc(F)c2)cc1` here?
Its IC50 is > 30 µM.
